Measurements as given in paper PMC8413292, “Small-molecule polymerase inhibitor protects non-human primates from measles and reduces shedding” (Nature Communications, 2021).
Values joined by “and” are separate entries in the source; they are usually repeats but may differ in a detail not shown here. Equal entries are not always repeated.

Experiments:
MeV N gene RNA = assay: Quantitative RT-PCR of MeV N RNA in PBMCs; type: in vivo; conditions: for Supplemental Figure 3a source data, relative MeV N RNA in PBMCs, individual animals: therapeutic (d7)
Protocol: Organs (21 days post-infection) and PBMCs (twice a week) were frozen in RNAlater (Qiagen) at −80 °C until further processing. For the deceased animal, organs were frozen in RNAlater at the day of death. Lymph nodes were thawed on ice, transferred to TRIzol (ambion life technologies) and homogenized using a tissue homogenizer. Total RNA of lymph nodes and PBMCs was extracted following the TRIzol manufacturer’s protocol. RNA (1000 ng for lymph nodes; 110 ng for PBMCs) was then subjected to reverse transcription using random hexamer primers and Superscript III reverse transcriptase in accordance with the manufacturer’s protocols. Subsequent quantitative PCR (qPCR) was carried out using primer pairs specific for a fragment in the MeV N gene[23] or GAPDH gene(Supplementary Table 2) and the PowerUp SYBR Green Master Mix (Thermo Fisher Scientific) in an Applied Biosystems 7500 Real-Time PCR system. Samples were normalized for GAPDH. The comparative (ΔΔCt) Ct method was applied to determine relative amounts of N-encoding RNA present in samples from treated animals compared to those obtained from untreated control animals (lymph nodes) or compared to those obtained from untreated control animals on day 7 post-infection (peak PBMC virus titer).

[1] = test system: MV/FrankfurtMain.DEU/17.11 (genotype D8); assay: Neutralizing antibody titers in serum; type: in vivo, squirrel monkeys (Saimiri sciureus); conditions: lower limit of detection = 10
Protocol: White blood cell counts, viral load quantification in PBMCs, and quantification of neutralizing antibody titers were performed as follows: for white blood cell counts, blood was diluted 1:100 in 3% acetic acid and cells were counted using a Neubauer chamber. For viral load quantification in PBMCs, blood was centrifuged at 3000 rpm for 15 min and serum was frozen at −20 °C until further use. Red blood cell lysis was performed and the remaining PBMCs were counted using a Neubauer chamber. Viral titers in PBMCs were quantified in quadruplicates using limited dilution method and calculated as TCID50/10^6 PBMCs. Neutralizing antibody titers were quantified by incubating MeV with 2-fold serial dilutions of the respective serum for 20 min at room temperature in quadruplicates. Vero/hSLAM cells were added and incubated for 3 days at 37 °C. Neutralizing antibody titers are expressed as the reciprocal of the highest serum dilution showing no signs of infection. For virus titration from throat swabs, swabs were placed in 150 μl DMEM with 3% penicillin/streptomycin and the titer was quantified by limited dilution method.

Cn1nc(C(F)(F)F)cc1C(=O)Nc1ccc(S(=O)(=O)N2CCCC[C@H]2CCN2CCOCC2)cc1 [ERDRP-0519]
Supplemental Figure 3a source data, relative MeV N RNA in PBMCs, individual animals (MeV N gene RNA; time (d) 0): -14.3685 and -13.0066 and -11.8077 and -7.512 and -11.9115 and -10.2528
Supplemental Figure 3a source data, relative MeV N RNA in PBMCs, individual animals (MeV N gene RNA; time (d) 3): -13.8644 and -13.9177 and -9.909 and -10.1407 and -11.3735 and -9.308
Supplemental Figure 3a source data, relative MeV N RNA in PBMCs, individual animals (MeV N gene RNA; time (d) 7): -0.7497 and -4.549 and -6.525 and -1.948 and -0.04871 and -5.313
Supplemental Figure 3a source data, relative MeV N RNA in PBMCs, individual animals (MeV N gene RNA; time (d) 10): -4.45
Supp. Figure 3a, relative MeV N RNA in PBMCs, Mean Diff. (MeV N gene RNA; untreated vs. prophylactic, Day 0): -1.268
Supp. Figure 3a, relative MeV N RNA in PBMCs, Mean Diff. (MeV N gene RNA; untreated vs. prophylactic, Day 3): 0.4295
Supp. Figure 3a, relative MeV N RNA in PBMCs, Mean Diff. (MeV N gene RNA; untreated vs. prophylactic, Day 7): 11.48
Supp. Figure 3a, relative MeV N RNA in PBMCs, Mean Diff. (MeV N gene RNA; untreated vs. prophylactic, Day 10): 11.3
Supp. Figure 3a, relative MeV N RNA in PBMCs, Mean Diff. (MeV N gene RNA; untreated vs. prophylactic, Day 14): 6.945
Supp. Figure 3a, relative MeV N RNA in PBMCs, Mean Diff. (MeV N gene RNA; untreated vs. prophylactic, Day 17): 2.967
Supp. Figure 3a, relative MeV N RNA in PBMCs, Mean Diff. (MeV N gene RNA; untreated vs. prophylactic, Day 21): 0.4094
Supp. Figure 3a, relative MeV N RNA in PBMCs, Mean Diff. (MeV N gene RNA; untreated vs. therapeutic (d3), Day 0): -0.325
Supp. Figure 3a, relative MeV N RNA in PBMCs, Mean Diff. (MeV N gene RNA; untreated vs. therapeutic (d3), Day 3): 0.4421
Supp. Figure 3a, relative MeV N RNA in PBMCs, Mean Diff. (MeV N gene RNA; untreated vs. therapeutic (d3), Day 7): 9.205
Supp. Figure 3a, relative MeV N RNA in PBMCs, Mean Diff. (MeV N gene RNA; untreated vs. therapeutic (d3), Day 10): 8.257
Supp. Figure 3a, relative MeV N RNA in PBMCs, Mean Diff. (MeV N gene RNA; untreated vs. therapeutic (d3), Day 14): 5.316
Supp. Figure 3a, relative MeV N RNA in PBMCs, Mean Diff. (MeV N gene RNA; untreated vs. therapeutic (d3), Day 17): 3.169
Supp. Figure 3a, relative MeV N RNA in PBMCs, Mean Diff. (MeV N gene RNA; untreated vs. therapeutic (d3), Day 21): 3.351
Supp. Figure 3a, relative MeV N RNA in PBMCs, Mean Diff. (MeV N gene RNA; untreated vs. therapeutic (d7), Day 0): -2.049
Supp. Figure 3a, relative MeV N RNA in PBMCs, Mean Diff. (MeV N gene RNA; untreated vs. therapeutic (d7), Day 3): -0.2124
Supp. Figure 3a, relative MeV N RNA in PBMCs, Mean Diff. (MeV N gene RNA; untreated vs. therapeutic (d7), Day 7): 3.189
Supp. Figure 3a, relative MeV N RNA in PBMCs, Mean Diff. (MeV N gene RNA; untreated vs. therapeutic (d7), Day 10): 3.285
Supp. Figure 3a, relative MeV N RNA in PBMCs, Mean Diff. (MeV N gene RNA; untreated vs. therapeutic (d7), Day 14): 0.916
Supp. Figure 3a, relative MeV N RNA in PBMCs, Mean Diff. (MeV N gene RNA; untreated vs. therapeutic (d7), Day 17): 0.1414
Supp. Figure 3a, relative MeV N RNA in PBMCs, Mean Diff. (MeV N gene RNA; untreated vs. therapeutic (d7), Day 21): -0.1552
neutralizing antibody titer, dilution factor [1/dilution] ([1]; prophylactic group, day 0, individual animals): 10 1/dilution
neutralizing antibody titer, dilution factor [1/dilution] ([1]; prophylactic group, day 3, individual animals): 10 1/dilution
neutralizing antibody titer, dilution factor [1/dilution] ([1]; prophylactic group, day 7, individual animals): 10 1/dilution
neutralizing antibody titer, dilution factor [1/dilution] ([1]; prophylactic group, day 10, individual animals): 10 1/dilution
neutralizing antibody titer, dilution factor [1/dilution] ([1]; prophylactic group, day 14, individual animals): 10 1/dilution (3×) and 80 1/dilution and 15 1/dilution and 30 1/dilution
neutralizing antibody titer, dilution factor [1/dilution] ([1]; prophylactic group, day 17, individual animals): 160 1/dilution and 240 1/dilution and 10 1/dilution (3×) and 17.5 1/dilution
neutralizing antibody titer, dilution factor [1/dilution] ([1]; prophylactic group, day 21, individual animals): 640 1/dilution and 200 1/dilution and 120 1/dilution and 10 1/dilution (2×) and 35 1/dilution
neutralizing antibody titer, dilution factor [1/dilution] ([1]; therapeutic (d3) group, day 0, individual animals): 10 1/dilution
neutralizing antibody titer, dilution factor [1/dilution] ([1]; therapeutic (d3) group, day 3, individual animals): 10 1/dilution
neutralizing antibody titer, dilution factor [1/dilution] ([1]; therapeutic (d3) group, day 7, individual animals): 10 1/dilution
neutralizing antibody titer, dilution factor [1/dilution] ([1]; therapeutic (d3) group, day 10, individual animals): 25 1/dilution and 10 1/dilution (2×) and 12.5 1/dilution
neutralizing antibody titer, dilution factor [1/dilution] ([1]; therapeutic (d3) group, day 14, individual animals): 800 1/dilution and 35 1/dilution and 10 1/dilution and 280 1/dilution and 400 1/dilution and 70 1/dilution
neutralizing antibody titer, dilution factor [1/dilution] ([1]; therapeutic (d3) group, day 17, individual animals): 200 1/dilution (2×) and 30 1/dilution and 240 1/dilution and 80 1/dilution
neutralizing antibody titer, dilution factor [1/dilution] ([1]; therapeutic (d3) group, day 21, individual animals): 320 1/dilution (2×) and 70 1/dilution and 140 1/dilution and 120 1/dilution
neutralizing antibody titer, dilution factor [1/dilution] ([1]; therapeutic (d7) group, day 0, individual animals): 10 1/dilution
neutralizing antibody titer, dilution factor [1/dilution] ([1]; therapeutic (d7) group, day 3, individual animals): 10 1/dilution (5×) and 12.5 1/dilution
neutralizing antibody titer, dilution factor [1/dilution] ([1]; therapeutic (d7) group, day 7, individual animals): 10 1/dilution (5×) and 15 1/dilution
neutralizing antibody titer, dilution factor [1/dilution] ([1]; therapeutic (d7) group, day 10, individual animals): 20 1/dilution and 12.5 1/dilution
